Patent publication US20070049564A1 (Wyeth, priority 2005, published 2007)
Converted amounts (≈) assume the structure as drawn. Like-named read-outs stand apart in the source and are kept apart here.

How the values were obtained:
Staph. = experiment: Range of MIC for Staph. strains, including MRSA; settings: Staphylococcus aureus
c. albicans GC 3066 = experiment: MIC, broth microdilution
E. coli GC 2236 = experiment: MIC, broth microdilution; settings: Escherichia coli, GC2236, read-out: MINIMAL INHIBITORY CONCENTRATION MIC, pre-incubated in Water
E. coli GC 2235 = experiment: MIC, broth microdilution; settings: Escherichia coli, GC2235, read-out: MINIMAL INHIBITORY CONCENTRATION MIC, pre-incubated in Water
S. agalactiae GC 4564 = experiment: MIC, broth microdilution; settings: Streptococcus agalactiae, GC4564, read-out: MINIMAL INHIBITORY CONCENTRATION MIC, pre-incubated in Water
E. coli GC 2233 = experiment: MIC, broth microdilution; settings: Escherichia coli, GC2233, read-out: MINIMAL INHIBITORY CONCENTRATION MIC, pre-incubated in Water
E. faecium GC 2243 = experiment: MIC, broth microdilution; settings: for MIC: Enterococcus faecium
S. pyogenes GC 4563 = experiment: MIC, broth microdilution; settings: for MIC: Streptococcus pyogenes
E. coli GC 1073 = experiment: MIC, broth microdilution; settings: Escherichia coli, GC1073, read-out: MINIMAL INHIBITORY CONCENTRATION MIC, pre-incubated in Water
S. aureus GC 6335 = experiment: MIC, broth microdilution; settings: for MIC: Staphylococcus aureus
E. faecalis GC 2265 = experiment: MIC, broth microdilution; settings: for MIC: Enterococcus faecalis
E. coli GC 2271 = experiment: MIC, broth microdilution; settings: Escherichia coli, GC2271, read-out: MINIMAL INHIBITORY CONCENTRATION MIC, pre-incubated in Water
Method: Antimicrobial susceptibility testing. The in vitro activities of the antibiotics are determined by the broth microdilution method as recommended by the National Committee for Clinical Laboratory Standards (NCCLS) (1). Mueller-Hinton II broth (MHBII)(BBL Cockeysville, Md.) is the medium employed in the testing procedures. Microtiter plates containing serial dilutions of each antimicrobial agent are inoculated with each organism to yield the appropriate density (10^5 CFU/ml) in a 100 μl final volume. The plates are incubated for 18-22 hours at 35° C. in ambient air.
Representative compounds were first incubated in mouse serum for an hour prior to the in vitro testing against a panel of selected gram-positive and gram-negative bacteria strains. All compounds were also pre-incubated in water for an hour prior to testing as control.

E. coli GC 3226 = experiment: MIC, broth microdilution; settings: Escherichia coli, GC3226, read-out: MINIMAL INHIBITORY CONCENTRATION MIC, pre-incubated in Water
S. aureus GC 6469 = experiment: MIC, broth microdilution; settings: for MIC: Staphylococcus aureus
E. coli = experiment: Range of MIC for E. coli strains; settings: Escherichia coli
S. typhimurium GC 2172 = experiment: MIC, broth microdilution; settings: for MIC: Salmonella enterica, TYPHIMURIUM
E. faecium GC 4556 = experiment: MIC, broth microdilution; settings: for MIC: Enterococcus faecium
S. aureus GC 1079 = experiment: MIC, broth microdilution; settings: for MIC: Staphylococcus aureus
E. faecalis GC 4555 = experiment: MIC, broth microdilution; settings: for MIC: Enterococcus faecalis
E. coli GC 2270 = experiment: MIC, broth microdilution; settings: Escherichia coli, GC2270, read-out: MINIMAL INHIBITORY CONCENTRATION MIC, pre-incubated in Water

Structure (SMILES): CN(C)c1cc(NC(=O)CN(C(=O)OCOC(=O)CC(C)(C)C)C(C)(C)C)c(O)c2c1C[C@H]1C[C@H]3[C@H](N(C)C)C(O)=C(C(N)=O)C(=O)[C@@]3(O)C(O)=C1C2=O [Example 42, ({[(2-{[(5aR,6aS,7S,10aS)-9-(aminocarbonyl)-4,7-bis(dimethylamino)-1,8,10a,11-tetrahydroxy-10,12-dioxo-5,5a,6,6a,7,10,10a,12-octahydrotetracen-2-yl]amino}-2-oxoethyl)(tert-butyl)amino]carbonyl}oxy)methyl 3,3-dimethylbutanoate]
- MIC (Staph.; MRSA, read-out: Range of MIC, Staph (Mouse Serum)): 2 to 4 µg/mL (≈ 2.64 to 5.28 µM)
- MIC (Staph.; MRSA, read-out: Range of MIC, Staph (Water)): 4 to 8 µg/mL (≈ 5.28 to 10.6 µM)
- MIC (Staph.; read-out: Minimum inhibitory concentration (MIC), Staph (Human Serum)): 2 to 4 µg/mL (≈ 2.64 to 5.28 µM)
- MIC (Staph.; read-out: Minimum inhibitory concentration (MIC), Staph (Water)): 4 to 8 µg/mL (≈ 5.28 to 10.6 µM)
- MIC (c. albicans GC 3066; Candida albicans, GC3066, read-out: MINIMAL INHIBITORY CONCENTRATION MIC): > 64 µg/mL
- MINIMAL INHIBITORY CONCENTRATION MIC (c. albicans GC 3066; pre-incubated in Mouse Serum): >64 UG/ML
- MIC (E. coli GC 2236): > 64 µg/mL
- MIC (E. coli GC 2235): > 64 µg/mL
- MIC (S. agalactiae GC 4564): 8 µg/mL (≈ 10.6 µM)
- MIC (E. coli GC 2233): > 64 µg/mL
- MIC (E. faecium GC 2243; GC2243, read-out: MINIMAL INHIBITORY CONCENTRATION MIC, pre-incubated in Mouse Serum): 2 µg/mL (≈ 2.64 µM)
- MIC (E. faecium GC 2243; GC2243, read-out: MINIMAL INHIBITORY CONCENTRATION MIC, pre-incubated in Water): 4 µg/mL (≈ 5.28 µM)
- MINIMAL INHIBITORY CONCENTRATION MIC (E. faecium GC 2243; pre-incubated in Mouse Serum): 4 UG/ML
- MIC (S. pyogenes GC 4563; GC4563, read-out: MINIMAL INHIBITORY CONCENTRATION MIC, pre-incubated in Mouse Serum): 2 µg/mL (≈ 2.64 µM)
- MIC (S. pyogenes GC 4563; GC4563, read-out: MINIMAL INHIBITORY CONCENTRATION MIC, pre-incubated in Water): 4 µg/mL (≈ 5.28 µM)
- MINIMAL INHIBITORY CONCENTRATION MIC (S. pyogenes GC 4563; pre-incubated in Mouse Serum): 4 UG/ML
- MIC (E. coli GC 1073): > 64 µg/mL
- MIC (S. aureus GC 6335; GC6335, read-out: MINIMAL INHIBITORY CONCENTRATION MIC, pre-incubated in Mouse Serum): 2 µg/mL (≈ 2.64 µM)
- MIC (S. aureus GC 6335; GC6335, read-out: MINIMAL INHIBITORY CONCENTRATION MIC, pre-incubated in Water): 4 µg/mL (≈ 5.28 µM)
- MINIMAL INHIBITORY CONCENTRATION MIC (S. aureus GC 6335; pre-incubated in Mouse Serum): 4 UG/ML
- MIC (E. faecalis GC 2265; GC2265, read-out: MINIMAL INHIBITORY CONCENTRATION MIC, pre-incubated in Mouse Serum): 2 µg/mL (≈ 2.64 µM)
- MIC (E. faecalis GC 2265; GC2265, read-out: MINIMAL INHIBITORY CONCENTRATION MIC, pre-incubated in Water): 8 µg/mL (≈ 10.6 µM)
- MINIMAL INHIBITORY CONCENTRATION MIC (E. faecalis GC 2265; pre-incubated in Mouse Serum): 4 UG/ML
- MIC (E. coli GC 2271): > 64 µg/mL
- MIC (E. coli GC 3226): > 64 µg/mL
- MIC (S. aureus GC 6469; GC6469, read-out: MINIMAL INHIBITORY CONCENTRATION MIC, pre-incubated in Mouse Serum): 2 µg/mL (≈ 2.64 µM)
- MIC (S. aureus GC 6469; GC6469, read-out: MINIMAL INHIBITORY CONCENTRATION MIC, pre-incubated in Water): 4 µg/mL (≈ 5.28 µM)
- MINIMAL INHIBITORY CONCENTRATION MIC (S. aureus GC 6469; pre-incubated in Mouse Serum): 4 UG/ML
- MIC (E. coli; 20 h, read-out: Range of MIC, E. coli (Mouse Serum)): 4 to 16 µg/mL (≈ 5.28 to 21.1 µM)
- MIC (E. coli; read-out: Minimum inhibitory concentration (MIC), E. coli (Human Serum)): > 64 µg/mL
- MIC (E. coli; read-out: Minimum inhibitory concentration (MIC), E. coli (water)): > 64 µg/mL
- MIC (E. coli; read-out: Range of MIC, E. coli (Water)): > 64 µg/mL
- MIC (S. typhimurium GC 2172; read-out: MINIMAL INHIBITORY CONCENTRATION MIC, pre-incubated in Mouse Serum): 64 µg/mL (≈ 84.5 µM)
- MIC (S. typhimurium GC 2172; read-out: MINIMAL INHIBITORY CONCENTRATION MIC, pre-incubated in Water): > 64 µg/mL
- MINIMAL INHIBITORY CONCENTRATION MIC (S. typhimurium GC 2172; pre-incubated in Mouse Serum): >64 UG/ML
- MIC (E. faecium GC 4556; GC4556, read-out: MINIMAL INHIBITORY CONCENTRATION MIC, pre-incubated in Mouse Serum): 2 µg/mL (≈ 2.64 µM)
- MIC (E. faecium GC 4556; GC4556, read-out: MINIMAL INHIBITORY CONCENTRATION MIC, pre-incubated in Water): 8 µg/mL (≈ 10.6 µM)
- MINIMAL INHIBITORY CONCENTRATION MIC (E. faecium GC 4556; pre-incubated in Mouse Serum): 4 UG/ML
- MIC (S. aureus GC 1079; GC1079, read-out: MINIMAL INHIBITORY CONCENTRATION MIC, pre-incubated in Mouse Serum): 2 µg/mL (≈ 2.64 µM)
- MIC (S. aureus GC 1079; GC1079, read-out: MINIMAL INHIBITORY CONCENTRATION MIC, pre-incubated in Water): 4 µg/mL (≈ 5.28 µM)
- MINIMAL INHIBITORY CONCENTRATION MIC (S. aureus GC 1079; pre-incubated in Mouse Serum): 4 UG/ML
- MIC (E. faecalis GC 4555; GC4555, read-out: MINIMAL INHIBITORY CONCENTRATION MIC, pre-incubated in Mouse Serum): 2 µg/mL (≈ 2.64 µM)
- MIC (E. faecalis GC 4555; GC4555, read-out: MINIMAL INHIBITORY CONCENTRATION MIC, pre-incubated in Water): 4 µg/mL (≈ 5.28 µM)
- MINIMAL INHIBITORY CONCENTRATION MIC (E. faecalis GC 4555; pre-incubated in Mouse Serum): 4 UG/ML
- MIC (E. coli GC 2270): > 64 µg/mL
